According to patent publication US7897637B2, “Methods of using flavonoids to enhance memory” (The Salk Institute for Biological Studies, priority 2006, dated 2011):
Entries after “also recorded” stand apart in the source; their conditions may differ.

Legend:
[1] = Trolox Equivalent Activity Concentration (ABTS decolorization assay); settings: Trolox as reference
Method: To determine if the protection seen with the different fisetin derivatives correlated with their antioxidant properties, their Trolox Equivalent Activity Concentration (TEAC) values were determined. In this procedure, a compound is compared to Trolox, a water-soluble vitamin E analog, for its ability to reduce the radical cation of ABTS in aqueous solution. As reported previously, fisetin has a TEAC value of ˜3 (Table II). None of the derivatives had TEAC values in this range despite, in some cases, showing better protection against oxidative stress-induced death. Thus, there was no correlation with antioxidant activity as defined by TEAC value and protection in this system.
TEAC values for the flavonoids were determined according to (Re et al. Free Rad. Biol. Med., 26:1231-7, 1999) but modified for a plate reader. Briefly, 250 μl of 2,2′-azinobis(3-ethylbenzothiazoline 6-sulfonate)(ABTS) treated overnight with potassium persulfate and diluted to an OD of ˜0.7 at 734 nm was added to 2.5 μl of a flavonoid solution in ethanol. The change in absorbance due to the reduction of the ABTS radical cation was measured at 734 nm for 4 minutes. To calculate the TEAC, the gradient of the plot of the percentage inhibition of absorbance vs. concentration for the flavonoid in question is divided by the gradient of the plot for Trolox.

GSH = experiment: Total cellular GSH levels in HT22 cells; assay type: cell-based, mouse; settings: 8 hours; for GSH levels in the presence of oxidative stress: 5 mM glutamate
Method: The effects of fisetin derivatives on cellular GSH levels was then determined. HT22 cells were untreated (Ct) or treated with 10 μM fisetin, 25 μM 3,3′-DHF, 25 μM 3,4′-DHF, 2.5 μM 3′,4′-DHF, 2.5 μM 3,3′,4′-THF, 25 μM 3,7,3′-THF, 25 μM 3,7,4′-THF or 10 μM 7,3′,4′-THF alone or in the presence of 5 mM glutamate. After 8 hours cellular levels of total GSH were determined as described in Example 4. The GSH level of the control sample (31.5±10 nmoles/mg protein) was taken as 100%.
Total intracellular GSH/GSSG was determined using whole cell lysates from untreated, glutamate treated, flavonoid treated and glutamate plus flavonoid treated cells as described (Maher and Hanneken, Invest. Opthalmol. Vis. Sci., 46:749-57, 2005, herein incorporated by reference as to the method) and normalized to total cellular protein.

Male C57Bl/6J mice = experiment: Object recognition task; assay type: in vivo; settings: 60 minutes prior to training, vs vehicle
Method: The effect of fisetin, 3,3′,4′-THF, and apigenin (5,7,4′-THF) on memory was tested in mice using an object recognition task (Ennaceur and Delacour, Behav. Brain Res., 31:47-59, 1988). Among the alternatives available for testing memory, this assay has proven very effective for measuring CREB-dependent functions (Prickaerts et al., Neurosci., 113:351-61, 2002; Bourtchouladze et al., Proc. Natl. Acad. Sci. USA, 100:10518-22, 2003). In this test, mice are presented with two identical objects during the training period which they explore for a fixed time period. To test for memory, mice are presented one day later with two different objects, one of which was presented previously during the training and is thus familiar to the mice, and the other that is novel. The better a mouse remembers the familiar object, the more time it will spend exploring the novel object. To test the effects of fisetin, 3,3′,4′-THF, or apigenin (5,7,4′-THF) in this memory task, the respective compound was administered orally to the mice before the start of the training period. Rolipram, a phosphodiesterase inhibitor that potentiates memory in this assay (Bourtchouladze et al., Proc. Natl. Acad. Sci. USA, 100:10518-22, 2003), requires intraperitoneal injection and was used as a positive control.
Male C57Bl/6J mice (Jackson Laboratories) were used and the testing was done by PsychoGenics (Tarrytown, N.Y.). All mice were acclimated to the colony room for at least 2 weeks prior to testing and were tested at an average age of 8 weeks. Mice were randomly assigned across treatment groups with 10 mice in each group. For each dose tested, a 10× solution of fisetin was prepared in 95% ethanol and then diluted with 4 volumes polyethylene glycol 660 hydroxystearate (Solut HS15 from BASF) and 5 volumes phosphate buffered saline. The vehicle was contained the identical ratios of ethanol, Solut HS15 and phosphate buffered saline. All were administered orally 60 minutes prior to training at a volume of 10 ml/kg body weight. Rolipram was dissolved in 10% DMSO and administered intraperitoneally 20 minutes prior to training. The test was performed as previously described by Bourtchouladze et al. (Proc. Natl. Acad. Sci. USA, 100:10518-22, 2003). Briefly, on Day 1 mice were habituated to a circular open field arena for one hour in cage groups of four. Twenty-four (24) hours later, individual mice were placed back in the same arena which now contained two identical objects for a 15 minutes training trial. […] Each animal's test trial was recorded and the first 10 minutes of each session were scored. […] Data were analyzed by a one-way ANOVA followed by post-hoc comparisons with Fisher's test. […]

ERK = ERK activation in primary cortical neuron cultures (immunoblotting); assay type: cell-based, rat; settings: 10 μM, 30 minutes to 6 hours
Method: (§1) The average phosphoprotein signal from the blots was quantified by densitometry and normalized to total protein,
(§2) Five (5) day old cortical cultures were next pretreated with 50 μM of the MEK inhibitor, PD98059, before the addition of 10 μM fisetin for 4 hours.
(§3) Primary cultures of rat cortical neurons were prepared as previously described by Li et al. (Neuron, 19:453-63, 1997, herein incorporated by reference as to the method). Analysis of ERK and CREB phosphorylation was performed using SDS-polyacrylamide gel electrophoresis and immunoblotting as previously described by Sagara et al. (J. Neurochem., 90:1144-1155, 2004) using equal amounts of protein from 5 day old cortical cultures. Blots were scanned and quantified using NIH Image. Results were analyzed using an unpaired Student's t-test.

CREB = CREB activation in primary cortical neuron cultures (immunoblotting); assay type: cell-based, rat; settings: 10 μM, 30 minutes to 6 hours
Method: as §1, §2, §3

cAMP = cAMP levels in hippocampal slices (Scintillation Proximity Assay); assay type: cell-based
Method: Hippocampal slices were treated with fisetin using the conditions where maximal stimulation of CREB phosphorylation and facilitation of LTP were observed. Briefly, hippocampal slices in ACSF were treated with 1 μM fisetin for 5 minutes (fisetin) or 3 μM rolipram for 30 minutes (rolipram) and then either immediately frozen or treated with […] forskolin for an additional 15 minutes (rolipram+forskolin; fisetin+forskolin) prior to freezing. Additional slices were treated only with 5 μM forskolin for 15 minutes (forskolin). Forskolin, an activator of adenylyl cyclase, and rolipram were used as positive controls. The levels of cAMP in the slices were measured using a Scintillation Proximity Assay and presented as pmole/mg protein±S.D.

Compound | TEAC [1] | GSH levels in the presence of oxidative stress (GSH) | object recognition (Male C57Bl/6J mice; 25 mg/kg oral) | basal levels of GSH (GSH; flavonoid alone) | TEAC ([1]; listed as 3,7,3,′4′-THF (fisetin)) | ERK activation (ERK) | CREB activation (CREB) | object recognition (Male C57Bl/6J mice; 10 mg/kg oral) | effect on cAMP levels by itself (cAMP; 1 μM fisetin 5 minutes, 3 μM rolipram 30 minutes) | potentiation of the effect of forskolin on cAMP levels (cAMP; then 5 μM forskolin for 15 minutes)
O=c1c(O)c(-c2ccc(O)c(O)c2)oc2ccccc12 [3,3′,4′-THF, 3,3′,4′-trihydroxyflavone] | 2.07 ± 0.06 | able to maintain GSH levels | significantly increased object recognition |  |  |  |  |  |  | 
O=c1cc(-c2ccc(O)c(O)c2)oc2ccccc12 [3′,4′-DHF, 3′,4′-dihydroxyflavone] | 1.24 ± 0.08 | could not maintain GSH levels |  | raised the basal levels of GSH |  |  |  |  |  | 
O=c1c(O)c(-c2ccc(O)c(O)c2)oc2cc(O)ccc12 [fisetin, 3,3′,4′,7-tetrahydroxyflavone] | ~3 |  | significant effects |  | 3.11 ± 0.20 | induced ERK activation | enhanced CREB activation | significant effects | no effect; also recorded: does not increase cAMP levels | nor did it potentiate
